row,melting point [°C],SMILES
1,199 to 201,CCOC(=O)c1nnc(N)o1
2,106,Cc1cc(C(=O)NNCc2ccccc2)no1
3,163,O=C1N(c2ccccc2)N(c2ccccc2/N=N\c2ccccc2)C1(c1ccccc1)c1ccccc1
4,102,COc1ccc2c(=O)c(=O)c2c1
5,252 to 255,N=C1c2ccccc2C(=O)N1c1n[nH]c2ncccc12
6,207 to 209,O=C1Cc2ccccc2C(=O)Cc2ccccc21
7,221,c1ccc2c(c1)NC1(CCCC1)O2
8,212 to 215,Nc1c(Cl)c(Cl)nc(Cl)c1Cl
9,180 to 183,Cc1nc(-c2ccc(Cl)cc2)sc1C(=O)Cl
10,256,COc1ccc(-c2coc3cc(O)ccc3c2=O)cc1
11,35,O=[N+]([O-])c1ccc(F)cc1Cl
12,41,CCOC(=O)c1cncc(Br)c1
13,127 to 133,Cc1c(N)cccc1O
14,78 to 80,ON=Cc1ccco1
15,43,Cc1ccc(Br)nc1
16,197 to 201,CC(=O)NC(C(=O)O)c1ccccc1 (stereo unspecified)
17,323,Cn1cnc2ncnc(N)c21
18,120,COc1ccccc1OCC(=O)O
19,97 to 99,c1csc(-c2cc[nH]n2)c1
20,203,CCOC(=O)C1=C(C)NC(=O)NC1c1ccccc1C(F)(F)F (stereo unspecified)
21,70 to 74,O=C(O)[C@H]1COCN1C(=O)OCc1ccccc1

row,melting point [°C],SMILES
1,148,CC1(C)CC(=O)C(=NNc2ccccc2)C(=O)C1
2,111,O=C(Cc1ccccc1)c1ccc(Br)cc1
3,201 to 205,Oc1ccccc1N=CC=Nc1ccccc1O
4,70,CC(O)c1ccc(N)cc1 (stereo unspecified)
5,78 to 79,CCOC(=O)c1c(Cl)cc(C)cc1N1CCCC1
6,180 to 182,O=C1OC(/C=C/c2ccc([N+](=O)[O-])cc2)Cc2ccccc21 (stereo unspecified)
7,47,Nc1ccc(C(F)(F)F)cn1
8,165,COc1ccccc1-c1nnc2n1CN(c1ccccc1)CS2
9,154 to 156,N#Cc1ccc(O)c(O)c1
10,224,COc1ccc(C=C(C(=O)O)C(=Cc2ccc(OC)c(OC)c2)C(=O)O)cc1OC
11,225,Nc1ccc(C=Cc2nc3ccccc3[nH]2)cc1
12,74 to 76,CCCCCCCCCCCCCCCCCCCCC(=O)O
13,119,CC1=NN(c2ccc([N+](=O)[O-])cc2)C(=O)C1[N+](=O)[O-] (stereo unspecified)
14,96 to 97,COc1cccc2cc(C(=O)C3CC(C)(c4c(C)cc(C)cc4C)C3)oc12 (stereo unspecified)
15,143 to 147,O=C(O)c1cc(F)c(F)c(O)c1F
16,-1,CCOC(=O)CCCOc1ccc(Cl)cc1C
17,154,Cn1ccc(C(=O)O)n1
18,231 to 232,Cc1oc(-c2ccc(Cl)cc2)cc1C(=O)O
19,181,Nn1c(Cc2ccc(Cl)cc2)n[nH]c1=O
20,155,Nc1ccnc2ccccc12
21,190,CCOC(=O)C1=C(C)NC(=O)NC1c1ccc(O)c(OC)c1 (stereo unspecified)

row,melting point [°C],SMILES
1,-32,O=C1CCCCC1C1CCCCC1 (stereo unspecified)
2,185,CC(C)c1cc(C(C)C)c(-c2ccccc2P(C2CCCCC2)C2CCCCC2)c(C(C)C)c1
3,228,Cc1cccc2c1/C(=N/Nc1ccc([N+](=O)[O-])cc1[N+](=O)[O-])C2
4,95 to 98,O=[N+]([O-])c1cccc2cc[nH]c12
5,125 to 126,O=Cc1cc(O)ccc1I
6,136,Ic1ccc(I)c(I)c1I
7,-25.2,CC(C)(C)C(=O)C(C)(C)C
8,150,NC(=S)c1ccc(F)cc1
9,41,Cc1ccc(C(=O)N(C)C)cc1
10,136 to 139,O=C(c1ccc(F)cc1)[C@H]1CCCC[C@H]1C(=O)O (relative stereo)
11,137,NNc1ccc(Cl)nn1
12,445,O=C1c2c(Br)c(Br)c(Br)c(Br)c2C(=O)N1CCN1C(=O)c2c(Br)c(Br)c(Br)c(Br)c2C1=O
13,278 to 280,c1ccc(N2CSc3nnc(-c4cccnc4)n3C2)nc1
14,222 to 223,O=C(O)c1ccc(CN2CCS(=O)(=O)CC2)cc1
15,54,Cc1nc(-c2ccccc2)cs1
16,139,O=C(O)C=Cc1cc(F)ccc1F
17,300,O=C1C=C(Nc2cccc(O)c2)c2ccccc2C1=O
18,168 to 169,Cc1cccc(NC(=O)C(F)(F)F)c1C(=O)O
19,218,CC(=O)Nc1ccc(/N=N/c2ccc(N(Nc3ccc(NC(C)=O)cc3)C(C)=O)cc2)cc1
20,115 to 116,COc1ccc(OC)c(S(=O)(=O)Cl)c1
21,122,COc1cc(C(=O)c2ccccc2Cl)c([N+](=O)[O-])cc1OC

row,melting point [°C],SMILES
1,178,Cc1cc(CC(=O)O)n(C)c1C(=O)c1ccc(Cl)cc1
2,86 to 89,CC(C)(C)OC(=O)ON=C(C#N)c1ccccc1
3,48 to 52,CC(=O)NCCc1ccccc1
4,106,Cc1[nH]c2ccccc2c1C
5,228,CCOC(=O)C1=C(C)NC(=O)NC1c1cccc([N+](=O)[O-])c1 (stereo unspecified)
6,132,COc1ccc(Br)cc1CC(NC(=O)OC(C)(C)C)C(=O)O (stereo unspecified)
7,156 to 157,Cc1nn(C)c(N2CCOCC2)c1N
8,131 to 134,COc1ccc(P(c2ccc(OC)cc2)c2ccc(OC)cc2)cc1
9,252 to 253,NC(Cc1cc(F)ccc1F)C(=O)O (racemic)
10,64 to 68,Nc1cc(S(=O)(=O)F)ccc1Cl
11,125 to 126,Cc1cc(C)c(CC(=O)CSC#N)c(C)c1
12,79 to 82,COc1c(C(=O)Cl)csc1Br
13,96 to 97,O=C(c1ccccc1)c1coc(-c2ccc(Cl)cc2)c1S(=O)(=O)c1ccccc1
14,129,CCCC1Nn2c(nnc2-c2cccc([N+](=O)[O-])c2)S1 (stereo unspecified)
15,5,CC(C)OC(=O)COc1ccc(Cl)cc1Cl
16,153,COc1ccc(C2Nn3c(nnc3-c3ccc([N+](=O)[O-])cc3)S2)cc1 (stereo unspecified)
17,165,NC(=O)c1ccnc(I)c1
18,-14,IC=CI
19,54 to 59,CCOc1ccc(CO)cc1OC

row,SMILES,melting point [°C]
1,C=CC(=O)OCC(CC)CCCC (stereo unspecified),-90
2,c1csc(P(c2cccs2)c2cccs2)c1,29 to 30
3,COc1ccc([P+]2([S-])Nn3c(nnc3C(F)(F)F)S2)cc1 (stereo unspecified),211
4,COc1ccc(C2=CCC3(C)C(CCC4C3CCC3(C)C(OC(C)=O)CCC43)C2)cc1 (stereo unspecified),177 to 180
5,Nc1c([N+](=O)[O-])cc(Cl)cc1[N+](=O)[O-],147
6,CCCC(O)CCC=CC=CC#CC#CC=CCO (stereo unspecified),87
7,Brc1c(Br)c(Br)c2c(c1Br)Oc1c(Br)c(Br)c(Br)c(Br)c1O2,376
8,NCc1cc(=O)[nH]o1,175
9,O=C(O)C(F)(F)C(F)(F)C(F)(F)C(F)(F)C(F)(F)C(F)(F)C(F)(F)C(F)(F)C(F)(F)F,87.4 to 88.2

# Source: a melting point compilation (Tetko et al.)
